pKd: −log10 of the molar value. “And” between values parts separate entries of the source, which are not always exact repeats. Equal entries are not always repeated. Where two headings read alike, the source gives them in different places.
Columns and labels:
WWP2 (SEQ ID NO:24) = molecular target: T1, WWP2 (SEQ ID NO:24) (Homo sapiens, UniProt O00308); experiment: Epic label-free binding assay of compounds to immobilized WWP2; conditions: Epic label-free binding, WWP2 as target; read-out: Kd
T1 construct: poly-His (pET28b leader with thrombin site) (N, cleaved yes); made in house; host or cells: E. coli BL21 DE3
Method: Another preferred embodiment of an in vitro screening method is depicted in FIG. 3. In this method, the ability of the candidate compound 204 to directly interact with the cellular ESCRT-linked component protein (for example, Nedd4 family of polypeptides [for example, WWP1 (SEQ ID NO:29), WWP2 (SEQ ID NO:24), Nedd4 L, among others]) or TGS101 is evaluated. According to this embodiment, a cellular ESCRT component protein 202 is preferably immobilized to a substrate 201 (for example, a microtiter plate) via a linking group 203 (for example, an amine group). The substrate preferably includes an optional reference area that provides a control to prevent non-specific interactions with non-mobilized ESCRT complex protein 202 with substrate 201. The substrate 201 is washed and irradiated with broadband light so that a baseline refractive index is measured. Test compound 204 is added to the system to permit its binding to the immobilized ESCRT component protein 202 to form a resultant associative complex 205. The substrate 201 is irradiated with broadband light again to detect a change in the wavelength of the reflected light.
High sensitivity biochemical plates (PerkinElmer Cat. No. 6057468) are used in WWP2 (SEQ ID NO:24) binding assay to maximize protein immobilization. […] Because compound stocks are in DMSO that affects the Epic label-free readout, the compound plates were prepared by Echo550 acoustic dispenser to keep DMSO content balanced for all wells. […]
The binding of compounds to WWP2 (SEQ ID NO:24) was measured on the EnSpire label-free plate reader. After 25 minutes of thermal equilibration, a baseline reading was taken on the label-free plates with protein immobilized in assay buffer. […] The final reading was taken after 25 min of thermal equilibration and over a period of 60 minutes. The label-free responses were measured as shifts in reflected wavelength and were expressed in picometers (pm). Results were analyzed using the EnSpire label-free user interface software. […]

COS-1 cells = conditions: K21 100 μM, N20 20 μM; for Cytotoxicity, average of the independent experiments: average in parentheses, DMSO 21%; for Cytotoxicity (blue cells/total cells x 100): single count, DMSO 24%, 18%
Method: The standard trypan blue assay, where dead cells are blue when visualized under a light microscope, was used to determine the percent of dead cells in the culture. Briefly, cells from a well of DMSO-treated, K21-treated and N20-treated samples were dislodged from the well with a stream of 1 ml PBS, collected, pelleted at 200 rpm for 2 min, and suspended in 300 μl trypsin-EDTA, incubated at 37° C. for 30 min. A diluted cell suspension was prepared by mixing 200 μl of the trypsin-treated cell suspension and 800 μl of PBS was used for the assay. For the assay itself: from the 1 ml of diluted cell suspension, 50 μl was taken an placed on paraffin and to this was mixed in 50 μl of 0.4% Trypan Blue dye in PBS, after exactly 2 minutes later, the mixture was loaded on a hematocytometer. The hematocytometer was placed on the light microscope stage and a blue cell count and an all cells count (blue and not blue cells) obtained. Two 50 μl aliquots were counted per sample.

293 cells [1] = experiment: Toxicity of inhibitor concentrations to cultured cells of the VLP release assay; conditions: concentrations of FIG. 6A
293 cells [2] = system: 293 cells

T1 sequence (O00308 with tags, fused parts or gaps): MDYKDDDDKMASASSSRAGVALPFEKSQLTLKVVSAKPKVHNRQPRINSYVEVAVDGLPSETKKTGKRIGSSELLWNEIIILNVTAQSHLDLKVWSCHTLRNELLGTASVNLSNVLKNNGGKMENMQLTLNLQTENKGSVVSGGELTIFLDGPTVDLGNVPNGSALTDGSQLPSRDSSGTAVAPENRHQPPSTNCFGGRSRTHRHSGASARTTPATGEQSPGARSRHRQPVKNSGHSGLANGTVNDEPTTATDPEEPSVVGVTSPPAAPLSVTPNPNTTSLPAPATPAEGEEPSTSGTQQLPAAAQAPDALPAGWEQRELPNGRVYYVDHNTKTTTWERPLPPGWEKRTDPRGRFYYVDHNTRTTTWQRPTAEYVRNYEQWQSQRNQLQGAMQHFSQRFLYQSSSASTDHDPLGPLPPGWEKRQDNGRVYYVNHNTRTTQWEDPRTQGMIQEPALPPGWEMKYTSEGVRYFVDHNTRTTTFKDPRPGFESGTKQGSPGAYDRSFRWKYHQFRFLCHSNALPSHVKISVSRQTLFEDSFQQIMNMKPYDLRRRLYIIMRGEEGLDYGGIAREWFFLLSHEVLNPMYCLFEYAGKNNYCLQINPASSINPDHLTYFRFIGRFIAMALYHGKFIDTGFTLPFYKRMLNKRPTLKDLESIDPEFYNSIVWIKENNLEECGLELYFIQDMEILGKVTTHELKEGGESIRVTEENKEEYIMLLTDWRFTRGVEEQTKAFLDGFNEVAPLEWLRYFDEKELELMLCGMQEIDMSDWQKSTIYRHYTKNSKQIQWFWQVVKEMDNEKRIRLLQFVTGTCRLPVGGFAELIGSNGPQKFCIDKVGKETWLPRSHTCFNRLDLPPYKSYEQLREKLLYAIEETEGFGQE

SMILES: CN(C)[C@@H]1C(O)=C(C(N)=O)C(=O)[C@@]2(O)C(=O)C3=C(O)c4c(O)cccc4[C@@](C)(O)[C@H]3[C@H](O)[C@@H]12 [Oxytetracycline, (4S,4aR,5S,5aR,6S,12aS)-4-(dimethylamino)-3,5,6,10,11,12a-hexahydroxy-6-methyl-1,12-dioxo-1,4,4a,5,5a,6,12,12a-octahydrotetracene-2-carboxamide]
- pKd (WWP2 (SEQ ID NO:24)): 4.97
- Cytotoxicity, average of the independent experiments (COS-1 cells): (32%)
- Cytotoxicity (blue cells/total cells x 100) (COS-1 cells; listed as N20): 29% and 35%
- Cell toxicity of inhibitor concentrations (293 cells [1]): not cell toxic

SMILES: Cl.NC(CO)C(=O)NNCc1ccc(O)c(O)c1O (racemic) [Benserazide Hydrochloride, (RS)-2-amino-3-hydroxy-N′-(2,3,4-trihydroxybenzyl) propanehydrazide hydrochloride]
- pKd (WWP2 (SEQ ID NO:24)): 5.10
- Cell toxicity of inhibitor concentrations (293 cells [2]): not cell toxic
- Cytotoxicity, average of the independent experiments (COS-1 cells): (31%)
- Cytotoxicity (blue cells/total cells x 100) (COS-1 cells; listed as K21, hydrochloride): 34% and 28%
